According to US10966978B2, “Dose and regimen for HDM2-p53 interaction inhibitors” (Novartis AG, priority 2016, dated 2021):
Like-named read-outs stand apart in the source and are kept apart here.

Tested on: patients with advanced TP53 wild-type (WT) leukemias

Structure (SMILES): COc1ncc(-c2nc3c(n2C(C)C)[C@H](c2ccc(Cl)cc2)N(c2cc(Cl)cn(C)c2=O)C3=O)c(OC)n1 [HDM201, (S)-5-(5-Chloro-1-methyl-2-oxo-1,2-dihydro-pyridin-3-yl)-6-(4-chloro-phenyl)-2-(2,4-dimethoxy-pyrimidin-5-yl)-1-isopropyl-5,6-dihydro-1H-pyrrolo[3,4-d]imidazol-4-one]
- AE: Haemoglobin Decreased (Regimen 2A N = 7, Grade 3/4): 0 n (%)
- AE: Headache (Regimen 2A N = 7, Grade 3/4): 0 n (%)
- AE: Hyperbilirubinaemia (Regimen 2A N = 7, Grade 3/4): 0 n (%)
- AE: Hyperglycaemia (Regimen 2A N = 7, Grade 3/4): 0 n (%)
- AE: Hyperkalaemia (Regimen 2A N = 7, Grade 3/4): 0 n (%)
- AE: Hyperphosphataemia (Regimen 2A N = 7, Grade 3/4): 0 n (%)
- AE: Hyperuricaemia (Regimen 2A N = 7, Grade 3/4): 0 n (%)
- AE: Hypoalbuminaemia (Regimen 2A N = 7, Grade 3/4): 0 n (%)
- AE: Hypocalcaemia (Regimen 2A N = 7, Grade 3/4): 0 n (%)
- AE: Hypokalaemia (Regimen 2A N = 7, Grade 3/4): 0 n (%)
- AE: Hypomagnesaemia (Regimen 2A N = 7, Grade 3/4): 0 n (%)
- AE: Hyponatraemia (Regimen 2A N = 7, Grade 3/4): 0 n (%)
- AE: Hypophosphataemia (Regimen 2A N = 7, Grade 3/4): 0 n (%)
- AE: Hypotension (Regimen 2A N = 7, Grade 3/4): 0 n (%)
- AE: Infection (Regimen 2A N = 7, Grade 3/4): 0 n (%)
- AE: Infective Glossitis (Regimen 2A N = 7, Grade 3/4): 0 n (%)
- AE: Iron Overload (Regimen 2A N = 7, Grade 3/4): 0 n (%)
- AE: Leukopenia (Regimen 2A N = 7, Grade 3/4): 0 n (%)
- AE: Lip Oedema (Regimen 2A N = 7, Grade 3/4): 0 n (%)
- AE: Lipase Increased (Regimen 2A N = 7, Grade 3/4): 0 n (%)
- AE: Macular Oedema (Regimen 2A N = 7, Grade 3/4): 0 n (%)
- AE: Malaise (Regimen 2A N = 7, Grade 3/4): 0 n (%)
- AE: Mouth Haemorrhage (Regimen 2A N = 7, Grade 3/4): 0 n (%)
- AE: Nausea (Regimen 2A N = 7, Grade 3/4): 0 n (%)
- AE: Neutropenia/Neutrophil Count Decreased (Regimen 2A N = 7, Grade 3/4): 1 (14.3) n (%)
- AE: Oedema (Regimen 2A N = 7, Grade 3/4): 0 n (%)
- AE: Oedema Peripheral (Regimen 2A N = 7, Grade 3/4): 0 n (%)
- AE: Oral Disorder (Regimen 2A N = 7, Grade 3/4): 0 n (%)
- AE: Pain In Extremity (Regimen 2A N = 7, Grade 3/4): 0 n (%)
- AE: Pancytopenia (Regimen 2A N = 7, Grade 3/4): 0 n (%)
- AE: Pneumonia (Regimen 2A N = 7, Grade 3/4): 0 n (%)
- AE: Pollakiuria (Regimen 2A N = 7, Grade 3/4): 0 n (%)
- AE: Pyrexia (Regimen 2A N = 7, Grade 3/4): 0 n (%)
- AE: Rash (Regimen 2A N = 7, Grade 3/4): 0 n (%)
- AE: Rash Erythematous (Regimen 2A N = 7, Grade 3/4): 0 n (%)
- AE: Rash Papular (Regimen 2A N = 7, Grade 3/4): 0 n (%)
- AE: Rectal Haemorrhage (Regimen 2A N = 7, Grade 3/4): 0 n (%)
- AE: Renal Failure (Regimen 2A N = 7, Grade 3/4): 0 n (%)
- AE: Skin Exfoliation (Regimen 2A N = 7, Grade 3/4): 0 n (%)
- AE: Stomatitis (Regimen 2A N = 7, Grade 3/4): 0 n (%)
- AE: Subarachnoid Haemorrhage (Regimen 2A N = 7, Grade 3/4): 0 n (%)
- AE: Thrombocytopenia/Platelet Count Decreased (Regimen 2A N = 7, Grade 3/4): 2 (28.6) n (%)
- AE: Total (Regimen 2A N = 7, Grade 3/4): 3 (42.9) n (%)
- AE: Tumour Lysis Syndrome (Regimen 2A N = 7, Grade 3/4): 1 (14.3) n (%)
- AE: Vomiting (Regimen 2A N = 7, Grade 3/4): 0 n (%)
- AE: Weight Decreased (Regimen 2A N = 7, Grade 3/4): 0 n (%)
- AE: White Blood Cell Count Decreased (Regimen 2A N = 7, Grade 3/4): 1 (14.3) n (%)
- AE: Abdominal Discomfort (Regimen 2C N = 8, All Grades): 0 n (%)
- AE: Abdominal Pain (Regimen 2C N = 8, All Grades): 0 n (%)
- AE: Abdominal Pain Upper (Regimen 2C N = 8, All Grades): 0 n (%)
- AE: Amylase Increased (Regimen 2C N = 8, All Grades): 0 n (%)
- AE: Anaemia (Regimen 2C N = 8, All Grades): 5 (62.5) n (%)
- AE: Arthralgia (Regimen 2C N = 8, All Grades): 0 n (%)
- AE: Asthenia (Regimen 2C N = 8, All Grades): 2 (25.0) n (%)
- AE: Atrial Fibrillation (Regimen 2C N = 8, All Grades): 0 n (%)
- AE: Atypical Pneumonia (Regimen 2C N = 8, All Grades): 0 n (%)
- AE: Balanitis Candida (Regimen 2C N = 8, All Grades): 0 n (%)
- AE: Blood Alkaline Phosphatase Increased (Regimen 2C N = 8, All Grades): 0 n (%)
- AE: Blood Bilirubin Increased (Regimen 2C N = 8, All Grades): 0 n (%)
- AE: Blood Creatinine Increased (Regimen 2C N = 8, All Grades): 1 (12.5) n (%)
- AE: Blood Phosphorus Increased (Regimen 2C N = 8, All Grades): 0 n (%)
- AE: Blood Uric Acid Increased (Regimen 2C N = 8, All Grades): 0 n (%)
- AE: Bone Marrow Failure (Regimen 2C N = 8, All Grades): 0 n (%)
- AE: C-Reactive Protein Increased (Regimen 2C N = 8, All Grades): 0 n (%)
- AE: Cardiac Failure (Regimen 2C N = 8, All Grades): 0 n (%)
- AE: Cellulitis (Regimen 2C N = 8, All Grades): 0 n (%)
- AE: Chronic Graft Versus Host Disease (Regimen 2C N = 8, All Grades): 0 n (%)
- AE: Conjunctival Haemorrhage (Regimen 2C N = 8, All Grades): 0 n (%)
- AE: Constipation (Regimen 2C N = 8, All Grades): 1 (12.5) n (%)
- AE: Cough (Regimen 2C N = 8, All Grades): 0 n (%)
- AE: Cystitis Viral (Regimen 2C N = 8, All Grades): 0 n (%)
- AE: Cytomegalovirus Infection (Regimen 2C N = 8, All Grades): 0 n (%)
- AE: Decreased Appetite (Regimen 2C N = 8, All Grades): 4 (50.0) n (%)
- AE: Diarrhoea (Regimen 2C N = 8, All Grades): 2 (25.0) n (%)
- AE: Dyspepsia (Regimen 2C N = 8, All Grades): 0 n (%)
- AE: Dyspnoea (Regimen 2C N = 8, All Grades): 0 n (%)
- AE: Epistaxis (Regimen 2C N = 8, All Grades): 1 (12.5) n (%)
- AE: Fatigue (Regimen 2C N = 8, All Grades): 2 (25.0) n (%)
- AE: Febrile Neutropenia (Regimen 2C N = 8, All Grades): 3 (37.5) n (%)
- AE: Gamma-Glutamyltransferase Increased (Regimen 2C N = 8, All Grades): 0 n (%)
- AE: General Physical Health Deterioration (Regimen 2C N = 8, All Grades): 0 n (%)
- AE: Gingival Bleeding (Regimen 2C N = 8, All Grades): 0 n (%)
- AE: Graft Versus Host Disease (Regimen 2C N = 8, All Grades): 0 n (%)
- AE: Haemoglobin Decreased (Regimen 2C N = 8, All Grades): 0 n (%)
- AE: Headache (Regimen 2C N = 8, All Grades): 0 n (%)
- AE: Hyperbilirubinaemia (Regimen 2C N = 8, All Grades): 0 n (%)
- AE: Hyperglycaemia (Regimen 2C N = 8, All Grades): 0 n (%)
- AE: Hyperkalaemia (Regimen 2C N = 8, All Grades): 0 n (%)
- AE: Hyperphosphataemia (Regimen 2C N = 8, All Grades): 1 (12.5) n (%)
- AE: Hypoalbuminaemia (Regimen 2C N = 8, All Grades): 0 n (%)
- AE: Hypocalcaemia (Regimen 2C N = 8, All Grades): 0 n (%)
- AE: Hypokalaemia (Regimen 2C N = 8, All Grades): 0 n (%)
- AE: Hypomagnesaemia (Regimen 2C N = 8, All Grades): 0 n (%)
- AE: Hyponatraemia (Regimen 2C N = 8, All Grades): 0 n (%)
- AE: Hypophosphataemia (Regimen 2C N = 8, All Grades): 0 n (%)
- AE: Hypotension (Regimen 2C N = 8, All Grades): 0 n (%)
- AE: Infection (Regimen 2C N = 8, All Grades): 0 n (%)
- AE: Infective Glossitis (Regimen 2C N = 8, All Grades): 1 (12.5) n (%)
- AE: Iron Overload (Regimen 2C N = 8, All Grades): 0 n (%)
- AE: Leukopenia (Regimen 2C N = 8, All Grades): 0 n (%)
- AE: Lip Oedema (Regimen 2C N = 8, All Grades): 0 n (%)
- AE: Lipase Increased (Regimen 2C N = 8, All Grades): 0 n (%)
- AE: Macular Oedema (Regimen 2C N = 8, All Grades): 0 n (%)
- AE: Malaise (Regimen 2C N = 8, All Grades): 0 n (%)
- AE: Mouth Haemorrhage (Regimen 2C N = 8, All Grades): 0 n (%)
